Laboratory results taken from US10670605B2, “Cysteine reactive probes and uses thereof” (The Scripps Research Institute, priority 2015, dated 2020).

Experiments:
Assay in all cases: Competitive isoTOP-ABPP, cell lysates
Format in all cases: binding
DDX59 C414 (Q5T1V6) = biological target: T1, DDX59 C414 (Q5T1V6) (Homo sapiens, UniProt Q5T1V6); conditions: for isoTOP-ABPP reactivity profile ratio, Q5T1V6_C414 / isoTOP-ABPP reactivity ratio, Q5T1V6_C414: 500 μm
T1 sequence (Q5T1V6 1-619): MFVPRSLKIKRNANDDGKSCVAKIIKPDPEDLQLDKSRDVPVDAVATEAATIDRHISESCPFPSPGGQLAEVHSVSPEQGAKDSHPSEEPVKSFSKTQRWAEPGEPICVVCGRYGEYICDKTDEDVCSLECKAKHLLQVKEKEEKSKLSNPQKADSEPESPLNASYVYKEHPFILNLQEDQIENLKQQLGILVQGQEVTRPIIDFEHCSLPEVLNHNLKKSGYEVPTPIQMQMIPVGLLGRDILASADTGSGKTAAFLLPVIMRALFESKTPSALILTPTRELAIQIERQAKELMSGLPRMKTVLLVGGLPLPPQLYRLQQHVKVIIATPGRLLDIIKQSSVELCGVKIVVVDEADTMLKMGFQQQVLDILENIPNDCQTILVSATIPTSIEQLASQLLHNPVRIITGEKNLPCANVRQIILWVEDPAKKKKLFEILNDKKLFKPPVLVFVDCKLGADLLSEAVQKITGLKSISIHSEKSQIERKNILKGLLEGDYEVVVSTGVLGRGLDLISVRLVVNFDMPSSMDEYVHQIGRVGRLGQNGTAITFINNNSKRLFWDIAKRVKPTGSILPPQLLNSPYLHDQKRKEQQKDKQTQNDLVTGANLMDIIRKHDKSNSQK

MGMT C145 (P16455) = biological target: T2, MGMT C145 (P16455) (Homo sapiens, UniProt P16455); conditions: for isoTOP-ABPP reactivity profile ratio, P16455_C145 / isoTOP-ABPP reactivity ratio, P16455_C145: 500 μm, in-vitro_ramos; for isoTOP-ABPP ratio, P16455_C145: 500 μM, invitro, ramos; for isoTOP-ABPP ratio (reactivity profile), P16455_C145: 500 μm in-vitro ramos
T2 sequence (P16455 1-207): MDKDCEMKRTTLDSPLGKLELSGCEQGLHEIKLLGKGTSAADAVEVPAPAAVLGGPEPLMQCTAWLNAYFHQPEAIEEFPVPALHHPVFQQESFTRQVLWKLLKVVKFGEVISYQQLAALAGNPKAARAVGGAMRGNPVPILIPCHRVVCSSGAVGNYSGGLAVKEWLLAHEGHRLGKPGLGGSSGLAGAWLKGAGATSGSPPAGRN

LRBA C1704 (P50851) = LRBA C1704 (P50851) (Homo sapiens, UniProt P50851); conditions: for isoTOP-ABPP ratio, P50851_C1704: 500 μM, invitro
Sequence of LRBA C1704 (P50851) (P50851 whole entry): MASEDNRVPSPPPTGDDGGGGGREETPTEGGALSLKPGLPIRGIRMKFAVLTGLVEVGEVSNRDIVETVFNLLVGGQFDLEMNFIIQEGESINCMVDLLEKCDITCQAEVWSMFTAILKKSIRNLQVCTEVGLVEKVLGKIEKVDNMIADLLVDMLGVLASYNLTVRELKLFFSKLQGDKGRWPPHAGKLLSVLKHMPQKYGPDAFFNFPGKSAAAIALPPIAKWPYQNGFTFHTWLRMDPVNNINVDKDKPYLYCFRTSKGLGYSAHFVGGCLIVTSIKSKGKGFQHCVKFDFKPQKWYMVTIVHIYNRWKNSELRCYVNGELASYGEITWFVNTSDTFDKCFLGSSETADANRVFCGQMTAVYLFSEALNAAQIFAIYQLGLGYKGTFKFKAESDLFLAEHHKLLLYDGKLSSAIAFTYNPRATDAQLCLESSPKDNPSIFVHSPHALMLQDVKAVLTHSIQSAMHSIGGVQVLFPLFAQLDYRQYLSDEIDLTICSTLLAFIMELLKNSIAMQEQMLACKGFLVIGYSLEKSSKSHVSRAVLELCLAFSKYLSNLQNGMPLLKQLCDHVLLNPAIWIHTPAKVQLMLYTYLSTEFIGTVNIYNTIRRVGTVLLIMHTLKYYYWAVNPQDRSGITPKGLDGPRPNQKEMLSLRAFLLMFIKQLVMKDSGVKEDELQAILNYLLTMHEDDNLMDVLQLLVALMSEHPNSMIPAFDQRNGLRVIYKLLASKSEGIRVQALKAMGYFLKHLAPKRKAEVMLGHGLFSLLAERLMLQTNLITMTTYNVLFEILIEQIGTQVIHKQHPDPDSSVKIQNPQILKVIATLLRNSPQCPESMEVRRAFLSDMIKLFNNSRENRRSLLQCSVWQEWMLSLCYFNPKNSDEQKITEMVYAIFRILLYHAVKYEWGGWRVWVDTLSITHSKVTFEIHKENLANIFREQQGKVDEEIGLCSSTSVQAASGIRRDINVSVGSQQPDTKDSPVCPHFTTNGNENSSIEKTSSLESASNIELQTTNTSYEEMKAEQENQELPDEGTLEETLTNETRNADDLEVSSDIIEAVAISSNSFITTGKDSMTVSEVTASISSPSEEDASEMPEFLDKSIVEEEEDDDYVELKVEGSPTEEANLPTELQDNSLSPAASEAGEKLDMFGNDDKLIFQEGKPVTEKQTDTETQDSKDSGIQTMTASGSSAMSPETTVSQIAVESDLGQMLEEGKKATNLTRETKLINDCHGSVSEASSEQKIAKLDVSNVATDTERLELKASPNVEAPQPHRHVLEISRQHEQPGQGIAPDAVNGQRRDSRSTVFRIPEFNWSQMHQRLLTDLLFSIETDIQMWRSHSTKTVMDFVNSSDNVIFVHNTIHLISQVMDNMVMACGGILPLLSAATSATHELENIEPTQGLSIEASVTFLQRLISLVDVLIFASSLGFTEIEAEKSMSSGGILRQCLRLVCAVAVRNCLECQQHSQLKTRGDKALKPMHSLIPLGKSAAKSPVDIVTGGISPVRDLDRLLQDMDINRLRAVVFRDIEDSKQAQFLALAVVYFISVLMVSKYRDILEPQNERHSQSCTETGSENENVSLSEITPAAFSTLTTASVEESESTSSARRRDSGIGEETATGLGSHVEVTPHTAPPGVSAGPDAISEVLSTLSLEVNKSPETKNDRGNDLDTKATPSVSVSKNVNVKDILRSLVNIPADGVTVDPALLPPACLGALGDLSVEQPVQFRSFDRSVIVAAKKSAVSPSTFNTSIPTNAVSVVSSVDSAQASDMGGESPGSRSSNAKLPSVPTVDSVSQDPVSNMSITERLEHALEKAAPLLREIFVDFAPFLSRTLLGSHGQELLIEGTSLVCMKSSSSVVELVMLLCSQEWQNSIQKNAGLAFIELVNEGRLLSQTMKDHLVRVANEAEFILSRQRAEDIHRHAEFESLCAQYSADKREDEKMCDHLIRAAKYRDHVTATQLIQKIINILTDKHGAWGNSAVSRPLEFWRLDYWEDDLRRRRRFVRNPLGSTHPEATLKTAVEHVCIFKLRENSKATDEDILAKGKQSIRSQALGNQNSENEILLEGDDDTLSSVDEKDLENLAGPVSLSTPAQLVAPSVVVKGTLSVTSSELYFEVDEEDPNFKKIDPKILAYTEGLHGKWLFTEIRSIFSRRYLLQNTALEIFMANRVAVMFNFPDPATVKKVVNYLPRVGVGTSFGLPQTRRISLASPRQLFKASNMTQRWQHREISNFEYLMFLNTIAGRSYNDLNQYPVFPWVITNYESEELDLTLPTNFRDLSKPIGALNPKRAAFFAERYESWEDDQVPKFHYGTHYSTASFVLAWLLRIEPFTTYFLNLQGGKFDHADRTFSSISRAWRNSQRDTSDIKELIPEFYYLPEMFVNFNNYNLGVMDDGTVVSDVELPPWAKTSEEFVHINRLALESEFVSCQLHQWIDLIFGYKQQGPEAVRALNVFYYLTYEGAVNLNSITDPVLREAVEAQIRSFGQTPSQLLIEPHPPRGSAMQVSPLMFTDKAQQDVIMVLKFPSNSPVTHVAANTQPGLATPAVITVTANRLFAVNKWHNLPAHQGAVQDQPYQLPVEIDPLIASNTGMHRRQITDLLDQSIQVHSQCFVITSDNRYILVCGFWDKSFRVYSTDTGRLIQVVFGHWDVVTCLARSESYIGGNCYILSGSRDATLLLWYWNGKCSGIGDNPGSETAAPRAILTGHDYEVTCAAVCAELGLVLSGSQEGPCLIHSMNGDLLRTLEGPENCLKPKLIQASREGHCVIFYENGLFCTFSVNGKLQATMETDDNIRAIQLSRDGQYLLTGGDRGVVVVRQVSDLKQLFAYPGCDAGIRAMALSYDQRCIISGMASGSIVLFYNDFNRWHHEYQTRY

IREB2 C137 (P48200) = biological target: T3, IREB2 C137 (P48200) (Homo sapiens, UniProt P48200)
T3 sequence (P48200 1-963): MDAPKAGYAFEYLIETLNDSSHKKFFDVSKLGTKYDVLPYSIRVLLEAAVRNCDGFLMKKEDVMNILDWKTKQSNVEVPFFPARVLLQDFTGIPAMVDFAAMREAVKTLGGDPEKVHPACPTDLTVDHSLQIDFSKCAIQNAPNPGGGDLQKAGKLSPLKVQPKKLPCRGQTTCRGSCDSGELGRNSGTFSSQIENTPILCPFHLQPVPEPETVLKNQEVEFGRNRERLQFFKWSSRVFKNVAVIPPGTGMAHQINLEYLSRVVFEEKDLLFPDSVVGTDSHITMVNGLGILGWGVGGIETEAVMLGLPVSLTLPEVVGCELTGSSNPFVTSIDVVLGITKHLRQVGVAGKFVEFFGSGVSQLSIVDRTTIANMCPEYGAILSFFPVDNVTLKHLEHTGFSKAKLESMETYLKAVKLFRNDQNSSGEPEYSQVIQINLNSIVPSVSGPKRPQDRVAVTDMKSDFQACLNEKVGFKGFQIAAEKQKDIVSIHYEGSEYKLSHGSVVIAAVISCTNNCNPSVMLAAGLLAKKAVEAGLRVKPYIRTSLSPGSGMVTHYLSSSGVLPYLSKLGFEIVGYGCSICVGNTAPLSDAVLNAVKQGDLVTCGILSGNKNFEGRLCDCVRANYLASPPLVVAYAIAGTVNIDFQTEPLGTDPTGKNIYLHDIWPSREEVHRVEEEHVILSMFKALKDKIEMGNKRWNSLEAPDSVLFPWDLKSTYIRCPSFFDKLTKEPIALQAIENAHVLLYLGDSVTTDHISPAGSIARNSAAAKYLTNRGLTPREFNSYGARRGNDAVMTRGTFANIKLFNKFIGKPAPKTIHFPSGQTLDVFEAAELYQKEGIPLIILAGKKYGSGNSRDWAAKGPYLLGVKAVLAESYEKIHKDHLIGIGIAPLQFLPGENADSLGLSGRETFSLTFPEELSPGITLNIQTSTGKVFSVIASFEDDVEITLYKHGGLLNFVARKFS

## C=CC(=O)N1CCC(Cc2ccccc2)CC1 [compound 53]
DDX59 C414 (Q5T1V6); in-vitro_ramos_231
  isoTOP-ABPP reactivity profile ratio, Q5T1V6_C414: 0.8
MGMT C145 (P16455)
  isoTOP-ABPP reactivity profile ratio, P16455_C145: 1.0

## C=CC(=O)Nc1cc(F)c(N2CCN(C(=O)OC(C)(C)C)CC2)c(F)c1 [compound 38]
DDX59 C414 (Q5T1V6); in-vitro_ramos
  isoTOP-ABPP reactivity ratio, Q5T1V6_C414: 1.8
DDX59 C414 (Q5T1V6); in-vitro_ramos_231
  isoTOP-ABPP reactivity ratio, Q5T1V6_C414: 0.9
LRBA C1704 (P50851); 500 μm, in-vitro_ramos
  isoTOP-ABPP reactivity ratio, P50851_C1704: 2.5

## C=CC(=O)Nc1cc(C)c(Br)cc1C [compound 40]
DDX59 C414 (Q5T1V6); in-vitro_ramos
  isoTOP-ABPP reactivity ratio, Q5T1V6_C414: 1.4
IREB2 C137 (P48200); 500 μm, in-vitro_ramos
  isoTOP-ABPP reactivity ratio, P48200_C137: 1.1
MGMT C145 (P16455)
  isoTOP-ABPP reactivity ratio, P16455_C145: 1.0

## O=C(CCl)NC1C(O)OC(CO)C(O)C1O (mixture of isomers) [compound 44]
DDX59 C414 (Q5T1V6); in-vitro_ramos_231
  isoTOP-ABPP reactivity profile ratio, Q5T1V6_C414: 0.8

## C=CC(=O)N(Cc1cccnc1)c1cc(C(F)(F)F)cc(C(F)(F)F)c1 [compound 31]
LRBA C1704 (P50851); 500 μm, in-vitro_ramos
  isoTOP-ABPP reactivity ratio, P50851_C1704: 1.4
MGMT C145 (P16455)
  isoTOP-ABPP reactivity ratio, P16455_C145: 1.0

## Cn1cc(S(=O)(=O)N2CCOCC2)cc1C(=O)NC(=O)CCl [compound 11]
IREB2 C137 (P48200); 500 μM, invitro, ramos
  isoTOP-ABPP ratio, P48200_C137: 3.7
LRBA C1704 (P50851); ramos
  isoTOP-ABPP ratio, P50851_C1704: 1.4
MGMT C145 (P16455)
  isoTOP-ABPP ratio, P16455_C145: 20.0

## O=C(CCl)NCCc1c[nH]c2ccccc12 [compound 13]
DDX59 C414 (Q5T1V6); 500 μM, invitro, ramos
  isoTOP-ABPP ratio, Q5T1V6_C414: 1.2
LRBA C1704 (P50851); 231
  isoTOP-ABPP ratio, P50851_C1704: 0.7
LRBA C1704 (P50851); ramos
  isoTOP-ABPP ratio, P50851_C1704: 0.8
MGMT C145 (P16455)
  isoTOP-ABPP ratio, P16455_C145: 20.0

## O=C(CCl)N1CCN(CC(=O)N2CCOCC2)CC1 [compound 29]
MGMT C145 (P16455)
  isoTOP-ABPP ratio (reactivity profile), P16455_C145: 20.0

## O=C(CCl)N1CCOCC1 [compound 22]
DDX59 C414 (Q5T1V6); 500 μm in-vitro ramos
  isoTOP-ABPP ratio (reactivity profile), Q5T1V6_C414: 1.3

## CC(Cl)C(=O)Nc1cc(C(F)(F)F)cc(C(F)(F)F)c1 (centres unmarked) [compound 25]
LRBA C1704 (P50851); 500 μm in-vitro ramos_231
  isoTOP-ABPP ratio (reactivity profile), P50851_C1704: 0.8

## CC(Br)C(=O)Nc1cc(C(F)(F)F)cc(C(F)(F)F)c1 (centres unmarked) [compound 24]
DDX59 C414 (Q5T1V6); 500 μm in-vitro ramos
  isoTOP-ABPP ratio (reactivity profile), Q5T1V6_C414: 1.7
LRBA C1704 (P50851); 500 μm in-vitro ramos
  isoTOP-ABPP ratio (reactivity profile), P50851_C1704: 1.3
MGMT C145 (P16455)
  isoTOP-ABPP ratio (reactivity profile), P16455_C145: 20.0

## O=C(CCl)NC12CC3CC(CC(C3)C1)C2 [compound 21]
DDX59 C414 (Q5T1V6); 500 μm in-vitro ramos_231
  isoTOP-ABPP ratio (reactivity profile), Q5T1V6_C414: 1.2
LRBA C1704 (P50851); 500 μm in-vitro ramos
  isoTOP-ABPP ratio (reactivity profile), P50851_C1704: 1.6

## N#CC(=Cc1ccc(-c2ccccc2Cl)o1)C(N)=O [compound 42]
MGMT C145 (P16455)
  isoTOP-ABPP reactivity profile ratio, P16455_C145: 0.9

## O=C(CCl)Nc1ccc(-c2ccccc2)cc1 [compound 52]
IREB2 C137 (P48200); 500 μm, in-vitro_ramos
  isoTOP-ABPP reactivity profile ratio, P48200_C137: 1.3
LRBA C1704 (P50851); 500 μm, in-vitro_ramos
  isoTOP-ABPP reactivity profile ratio, P50851_C1704: 1.1

## O=C(CCl)N1CCC(C(O)(c2ccccc2)c2ccccc2)CC1 [compound 20]
DDX59 C414 (Q5T1V6); 500 μm in-vitro ramos
  isoTOP-ABPP ratio (reactivity profile), Q5T1V6_C414: 3.1
IREB2 C137 (P48200); 500 μm in-vitro ramos
  isoTOP-ABPP ratio (reactivity profile), P48200_C137: 5.2
LRBA C1704 (P50851); 500 μm in-vitro ramos
  isoTOP-ABPP ratio (reactivity profile), P50851_C1704: 1.7
LRBA C1704 (P50851); 500 μm in-vitro ramos_231
  isoTOP-ABPP ratio (reactivity profile), P50851_C1704: 2.0
MGMT C145 (P16455)
  isoTOP-ABPP ratio (reactivity profile), P16455_C145: 20.0

## CCN(CC)c1ccc(S(N)(=O)=O)cc1NC(=O)CCl [compound 30]
DDX59 C414 (Q5T1V6); in-vitro_ramos
  isoTOP-ABPP reactivity ratio, Q5T1V6_C414: 2.0
